For orientation: Ki means a measure of affinity in units of concentration, obtained from inhibition or displacement. A higher Ki goes with weaker binding.

Where only a bound is given, the exact number is not on record here.

The assay addresses Genome polyprotein (Hepatitis C virus genotype 1a (isolate H77), UniProt P27958). In words: Continuous Spectrophotometric Assay. The conditions noted are these: pH 6.5; 30 °C. As for the experimental part: Proteolytic cleavage of the ester linkage between the Nva (L-norvaline) and the chromophore (PAP) was monitored for change in absorbance at 370 nm. Initial velocities were determined using linear regression and kinetic constants were obtained by fitting the data to the Michaelis-Menten equation.

Genome polyprotein, sequence (P27958 1027-1657 limits assumed): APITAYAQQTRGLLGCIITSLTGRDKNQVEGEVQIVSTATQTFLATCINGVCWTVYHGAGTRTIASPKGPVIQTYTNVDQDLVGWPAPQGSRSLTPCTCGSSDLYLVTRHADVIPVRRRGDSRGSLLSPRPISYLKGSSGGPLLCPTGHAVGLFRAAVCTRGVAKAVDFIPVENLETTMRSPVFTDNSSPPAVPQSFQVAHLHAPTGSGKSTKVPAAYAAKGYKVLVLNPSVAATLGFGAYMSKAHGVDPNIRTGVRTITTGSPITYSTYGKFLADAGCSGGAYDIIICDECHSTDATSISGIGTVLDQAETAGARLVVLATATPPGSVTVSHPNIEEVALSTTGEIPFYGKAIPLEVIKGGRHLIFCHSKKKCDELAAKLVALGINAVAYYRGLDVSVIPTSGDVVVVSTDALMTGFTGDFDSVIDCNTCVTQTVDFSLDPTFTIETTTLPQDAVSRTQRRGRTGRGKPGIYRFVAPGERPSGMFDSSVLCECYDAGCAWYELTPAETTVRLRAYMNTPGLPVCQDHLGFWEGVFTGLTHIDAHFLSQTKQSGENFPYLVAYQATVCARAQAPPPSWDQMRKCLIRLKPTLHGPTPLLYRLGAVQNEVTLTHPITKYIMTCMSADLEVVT

`C=CCNC(=O)C(=O)C(CCC)NC(=O)[C@@H]1CNC(=O)N1C(=O)[C@@H](NC(=O)[C@@H](NC(=O)[C@H](CCC(=O)O)NC(=O)[C@H](CCC(=O)O)NC(C)=O)C(C)C)C(C)C` (stereo partly drawn) [(4S)-4-{[(1S)-3-carboxy-1-{[(1S)-2-methyl-1-{[(2S)-3-methyl-1-oxo-1-[(5S)-2-oxo-5-{[1-oxo-1-(prop-2-en-1-ylcarbamoyl)pentan-2-yl]carbamoyl}imidazolidin-1-yl]butan-2-yl]carbamoyl}propyl]carbamoyl}propyl]carbamoyl}-4-acetamidobutanoic acid]: the inhibition constant Ki came to 46 µM.

As for `C=CCOC(=O)CNC(=O)C(=O)C(CCC)NC(=O)[C@@H]1CN(Cc2ccc(Cl)c(Cl)c2)C(=O)N1C(=O)[C@@H](NC(=O)[C@@H](NC(=O)[C@H](CCC(=O)OC(C)(C)C)NC(=O)[C@H](CCC(=O)OC(C)(C)C)NC(C)=O)C(C)C)C(C)C` (stereo partly drawn) [tert-butyl (4S)-4-{[(1S)-4-(tert-butoxy)-1-{[(1S)-1-{[(2S)-1-[(5S)-3-[(3,4-dichlorophenyl)methyl]-2-oxo-5-[(1-oxo-1-{[2-oxo-2-(prop-2-en-1-yloxy)ethyl]carbamoyl}pentan-2-yl)carbamoyl]imidazolidin-1-yl]-3-methyl-1-oxobutan-2-yl]carbamoyl}-2-methylpropyl]carbamoyl}-4-oxobutyl]carbamoyl}-4-acetamidobutanoate], the Ki was > 100 µM.

Compound `C=CCNC(=O)C(=O)C(CCC)NC(=O)[C@@H]1CN(CC(=O)OCC)C(=O)N1C(=O)[C@@H](NC(=O)[C@@H](NC(=O)OCC(C)C)C(C)C)C(C)C` (stereo partly drawn) [ethyl 2-[(4S)-3-[(2S)-3-methyl-2-[(2S)-3-methyl-2-{[(2-methylpropoxy)carbonyl]amino}butanamido]butanoyl]-2-oxo-4-{[1-oxo-1-(prop-2-en-1-ylcarbamoyl)pentan-2-yl]carbamoyl}imidazolidin-1-yl]acetate] came in with an inhibition constant Ki of 78 µM.

For the compound `C=CCNC(=O)C(=O)C(CCC)NC(=O)[C@@H]1CN(CC(=O)OCC)C(=O)N1C(=O)[C@@H](NC(=O)[C@@H](NC(=O)[C@H](CCC(=O)O)NC(=O)[C@H](CCC(=O)O)NC(C)=O)C(C)C)C(C)C` (stereo partly drawn) [(4S)-4-{[(1S)-3-carboxy-1-{[(1S)-1-{[(2S)-1-[(5S)-3-(2-ethoxy-2-oxoethyl)-2-oxo-5-{[1-oxo-1-(prop-2-en-1-ylcarbamoyl)pentan-2-yl]carbamoyl}imidazolidin-1-yl]-3-methyl-1-oxobutan-2-yl]carbamoyl}-2-methylpropyl]carbamoyl}propyl]carbamoyl}-4-acetamidobutanoic acid], the Ki was 4 µM.

On to `C=CCNC(=O)C(=O)C(CCC)NC(=O)[C@@H]1CNC(=O)N1C(=O)[C@@H](NC(=O)[C@@H](NC(=O)[C@H](CCC(=O)OC(C)(C)C)NC(=O)[C@H](CCC(=O)OC(C)(C)C)NC(C)=O)C(C)C)C(C)C` (stereo partly drawn) [tert-butyl (4S)-4-{[(1S)-4-(tert-butoxy)-1-{[(1S)-2-methyl-1-{[(2S)-3-methyl-1-oxo-1-[(5S)-2-oxo-5-{[1-oxo-1-(prop-2-en-1-ylcarbamoyl)pentan-2-yl]carbamoyl}imidazolidin-1-yl]butan-2-yl]carbamoyl}propyl]carbamoyl}-4-oxobutyl]carbamoyl}-4-acetamidobutanoate], for which the affinity, expressed as Ki, was 69 µM.

In turn, `C=CCNC(=O)C(=O)C(CCC)NC(=O)[C@@H]1CN(Cc2ccccc2)C(=O)N1C(=O)[C@@H](NC(=O)[C@@H](NC(=O)[C@H](CCC(=O)OC(C)(C)C)NC(=O)[C@H](CCC(=O)OC(C)(C)C)NC(C)=O)C(C)C)C(C)C` (stereo partly drawn) [tert-butyl (4S)-4-{[(1S)-1-{[(1S)-1-{[(2S)-1-[(5S)-3-benzyl-2-oxo-5-{[1-oxo-1-(prop-2-en-1-ylcarbamoyl)pentan-2-yl]carbamoyl}imidazolidin-1-yl]-3-methyl-1-oxobutan-2-yl]carbamoyl}-2-methylpropyl]carbamoyl}-4-(tert-butoxy)-4-oxobutyl]carbamoyl}-4-acetamidobutanoate] gave a Ki of 61 µM.

For the compound `C=CCOC(=O)CNC(=O)C(=O)C(CCC)NC(=O)[C@@H]1CN(Cc2ccccc2)C(=O)N1C(=O)[C@@H](NC(=O)[C@@H](NC(=O)[C@H](CCC(=O)O)NC(=O)[C@H](CCC(=O)O)NC(C)=O)C(C)C)C(C)C` (stereo partly drawn) [(4S)-4-{[(1S)-1-{[(1S)-1-{[(2S)-1-[(5S)-3-benzyl-2-oxo-5-[(1-oxo-1-{[2-oxo-2-(prop-2-en-1-yloxy)ethyl]carbamoyl}pentan-2-yl)carbamoyl]imidazolidin-1-yl]-3-methyl-1-oxobutan-2-yl]carbamoyl}-2-methylpropyl]carbamoyl}-3-carboxypropyl]carbamoyl}-4-acetamidobutanoic acid], affinity was put at a Ki of 1 µM.

On to `C=CCOC(=O)CNC(=O)C(=O)C(CCC)NC(=O)[C@@H]1CN(Cc2ccccc2)C(=O)N1C(=O)[C@@H](NC(=O)[C@@H](NC(=O)[C@H](CCC(=O)OC(C)(C)C)NC(=O)[C@H](CCC(=O)OC(C)(C)C)NC(C)=O)C(C)C)C(C)C` (stereo partly drawn) [tert-butyl (4S)-4-{[(1S)-1-{[(1S)-1-{[(2S)-1-[(5S)-3-benzyl-2-oxo-5-[(1-oxo-1-{[2-oxo-2-(prop-2-en-1-yloxy)ethyl]carbamoyl}pentan-2-yl)carbamoyl]imidazolidin-1-yl]-3-methyl-1-oxobutan-2-yl]carbamoyl}-2-methylpropyl]carbamoyl}-4-(tert-butoxy)-4-oxobutyl]carbamoyl}-4-acetamidobutanoate], for which the inhibitory constant (Ki) was > 100 µM.

In turn, `C=CCOC(=O)CNC(=O)C(=O)C(CCC)NC(=O)[C@@H]1CN(Cc2ccc(Cl)c(Cl)c2)C(=O)N1C(=O)[C@@H](NC(=O)[C@@H](NC(=O)[C@H](CCC(=O)O)NC(=O)[C@H](CCC(=O)O)NC(C)=O)C(C)C)C(C)C` (stereo partly drawn) [(4S)-4-{[(1S)-3-carboxy-1-{[(1S)-1-{[(2S)-1-[(5S)-3-[(3,4-dichlorophenyl)methyl]-2-oxo-5-[(1-oxo-1-{[2-oxo-2-(prop-2-en-1-yloxy)ethyl]carbamoyl}pentan-2-yl)carbamoyl]imidazolidin-1-yl]-3-methyl-1-oxobutan-2-yl]carbamoyl}-2-methylpropyl]carbamoyl}propyl]carbamoyl}-4-acetamidobutanoic acid] displayed an inhibition constant Ki of 0.31 µM.

`C=CCNC(=O)C(=O)C(CCC)NC(=O)[C@@H]1CN(CC(=O)OCC)C(=O)N1C(=O)[C@@H](NC(=O)[C@@H](NC(=O)[C@H](CCC(=O)OC(C)(C)C)NC(=O)[C@H](CCC(=O)OC(C)(C)C)NC(C)=O)C(C)C)C(C)C` (stereo partly drawn) [tert-butyl (4S)-4-{[(1S)-4-(tert-butoxy)-1-{[(1S)-1-{[(2S)-1-[(5S)-3-(2-ethoxy-2-oxoethyl)-2-oxo-5-{[1-oxo-1-(prop-2-en-1-ylcarbamoyl)pentan-2-yl]carbamoyl}imidazolidin-1-yl]-3-methyl-1-oxobutan-2-yl]carbamoyl}-2-methylpropyl]carbamoyl}-4-oxobutyl]carbamoyl}-4-acetamidobutanoate] yielded an inhibitory constant (Ki) of 30 µM.

`C=CCNC(=O)C(=O)C(CCC)NC(=O)[C@@H]1CN(Cc2ccccc2)C(=O)N1C(=O)[C@@H](NC(=O)[C@@H](NC(=O)[C@H](CCC(=O)O)NC(=O)[C@H](CCC(=O)O)NC(C)=O)C(C)C)C(C)C` (stereo partly drawn) [(4S)-4-{[(1S)-1-{[(1S)-1-{[(2S)-1-[(5S)-3-benzyl-2-oxo-5-{[1-oxo-1-(prop-2-en-1-ylcarbamoyl)pentan-2-yl]carbamoyl}imidazolidin-1-yl]-3-methyl-1-oxobutan-2-yl]carbamoyl}-2-methylpropyl]carbamoyl}-3-carboxypropyl]carbamoyl}-4-acetamidobutanoic acid] displayed a Ki of 1 µM.
